This is an account of results in patent publication EP0922101B1, “EGF-LIKE FACTOR FROM CHROMAFFIN GRANULES AND GLIA CELL-DERIVED NEUROTROPHIC FACTOR WITH SURVIVAL-PROMOTING ACTIVITY ON DAERGIC NEURONS” (BIOPHARM Gesellschaft zur biotechnologischen Entwicklung …, priority 1996, dated 1998).

One data set has as its target HER1-2-kinase. The note with it: HER1-2-kinase autophosphorylation; cited from earlier work.
Data set [1] deals with GFAP-positive astroglial cells. Kind of data set: Induction of GFAP-positive astroglial cells in E14 mesencephalic cell cultures (GFAP immunocytochemistry). The format is cell-based, rat. On the procedure:
(§1) Tissue culture. Mesencephalic cell cultures were essentially established as described by Krieglstein and Unsicker (1994). In brief, the ventral midbrain floor was dissected from embryonic day (E) 14 Wistar rat fetuses of two litters (20-25 embryos) and collected in CMF. Tissue pieces were enzymatically dissociated using 0.25% trypsin (BioWhittaker) in CMF for 15 min at 37°C. After addition of an equal volume of ice-cold horse serum and 1mg DNAse, Cells were triturated with fire-polished and siliconized pasteur pipettes and subsequently washed with DMEM/F12. The single cell suspension (100µl) was seeded on polyornithine (0.1 mg/ml in 15mM borate buffer, pH 8.4, Sigma)-laminin (5µg/ml; Sigma) coated glass cover slips at a density of 200.000 cells/cm^2. Coverslips were incubated in a humified 5% CO2/95% air atmosphere to allow cells to attach. After two hours coverslips were transferred to 24-well plates (Falcon) containing 750 µl medium. On the following day, and subsequently every three days, 500 µl of the medium was replaced and neurotrophic factors were added at the same time at the given concentrations.
Immunocytochemistry. To identify DAergic or serotinergic neurons cells were visualized using antibodies aginst tyrosine hydroxylase (TH), or serotonin, respectively. Cells were fixed with 4% paraformaldehyde buffered in phosphate buffered saline (PBS) for 10 min at room temperature, permeabilized with acetone at -20°C for 10 min and washed with (PBS). After blocking with 1% H2O2 in PBS, followed by 1 % horse serum, coverslips were stained with a monoclonal antibody to rat TH (1:200; Boehringer Mannheim; diluted in 1 % horse serum) or with an antibody against serotonin (1:50; DAKO) for 1 h at 37°C. Specific staining was vizualized using the anti-mouse Vectastain ABC kit in combination with DAB (Camon, Germany). For glial fibrillary acidic protein (GFAP) immunocytochemistry, cells were fixed and permeabilized using aceton at -20°C for 20 min, then washed with PBS and incubated with a monoclonal antibody against GFAP (1:100; Sigma) for 1 h at 37°C. As a secondary antibody TRITC anti-mouse-IgG was used. […]
Evaluation of cell numbers. Survival of DAergic neurons was evaluated by counting all TH-positive neurons in one diagonal strips of the coverslip using 100-fold magnification. […] Quantification was done in triplicate and in at least two independent experiments. The number of GFAP-positive cells were assessed likewise.
In an initial series of experiments the chromaffin granule-derived activity is analyzed by specifically blocking its putative receptor pathway. […] When cultures were treated with TGF-α, a physiological EGFR ligand in the CNS, or EGF (10 ng/ml), only few GFAP-positive astroglial cells could be detected (Fig. 12). […]

A further data set concerns the target EGFR kinase (Homo sapiens, UniProt P00533). Conditions: EGFR kinase autophosphorylation; cited from earlier work.
Data set [2] relates to mesencephalic DAergic neurons. The data set is described as follows: Survival of TH-positive DAergic neurons in dissociated E14 ventral mesencephalic cell cultures (TH immunocytochemistry, cell counts). It counts as cell-based, rat. Conditions: for survival promoting activity: concentrations up to 100 ng/ml, treated for 7 days; for effect on survival promoting effect of chromaffin granule protein: 30 µM in combination with chromaffin granule protein 1:50, DIV1-DIV8; for basal survival of TH-immunoreactive neurons: 30 µM, control cultures, DIV8. On the procedure: as §1
Immunocytochemistry. To identify DAergic or serotinergic neurons cells were visualized using antibodies aginst tyrosine hydroxylase (TH), or serotonin, respectively. Cells were fixed with 4% paraformaldehyde buffered in phosphate buffered saline (PBS) for 10 min at room temperature, permeabilized with acetone at -20°C for 10 min and washed with (PBS). After blocking with 1% H2O2 in PBS, followed by 1 % horse serum, coverslips were stained with a monoclonal antibody to rat TH (1:200; Boehringer Mannheim; diluted in 1 % horse serum) or with an antibody against serotonin (1:50; DAKO) for 1 h at 37°C. Specific staining was vizualized using the anti-mouse Vectastain ABC kit in combination with DAB (Camon, Germany). For glial fibrillary acidic protein (GFAP) immunocytochemistry, cells were fixed and permeabilized using aceton at -20°C for 20 min, then washed with PBS and incubated with a monoclonal antibody against GFAP (1:100; Sigma) for 1 h at 37°C. As a secondary antibody TRITC anti-mouse-IgG was used. To monitor cell proliferation bromodesoxyuridine (BrdU) was added to the culture, 24 hours prior fixation, at a final concentration of 10 µM. Cells were washed twice with PBS and fixed with 70% ethanol buffered with 50 mM glycine, pH 2.0, for 20 min at -20°C. Incorporated BrdU was identified using anti-BrdU detection Kit I (Boehringer, Mannheim). BrdU/TH double detection was achieved by first applying the protocol for BrdU followed after another five washes with PBS and by the procedure for TH staining using TRITC anti-mouse-IgG as a secondary antibody. Nuclei were stained with propidium iodide (20 s, 0.1µg/ml). Coverslips were mounted using Aquatex (Merck, Darmstadt).
Evaluation of cell numbers. Survival of DAergic neurons was evaluated by counting all TH-positive neurons in one diagonal strips of the coverslip using 100-fold magnification. This area corresponded to 12% of the total area. Quantification was done in triplicate and in at least two independent experiments. The number of GFAP-positive cells were assessed likewise.

In another data set the target is p185^c-erbB2 (Homo sapiens, UniProt P04626). Conditions: cited from earlier work.
Chain of p185^c-erbB2 (P04626 23-1255): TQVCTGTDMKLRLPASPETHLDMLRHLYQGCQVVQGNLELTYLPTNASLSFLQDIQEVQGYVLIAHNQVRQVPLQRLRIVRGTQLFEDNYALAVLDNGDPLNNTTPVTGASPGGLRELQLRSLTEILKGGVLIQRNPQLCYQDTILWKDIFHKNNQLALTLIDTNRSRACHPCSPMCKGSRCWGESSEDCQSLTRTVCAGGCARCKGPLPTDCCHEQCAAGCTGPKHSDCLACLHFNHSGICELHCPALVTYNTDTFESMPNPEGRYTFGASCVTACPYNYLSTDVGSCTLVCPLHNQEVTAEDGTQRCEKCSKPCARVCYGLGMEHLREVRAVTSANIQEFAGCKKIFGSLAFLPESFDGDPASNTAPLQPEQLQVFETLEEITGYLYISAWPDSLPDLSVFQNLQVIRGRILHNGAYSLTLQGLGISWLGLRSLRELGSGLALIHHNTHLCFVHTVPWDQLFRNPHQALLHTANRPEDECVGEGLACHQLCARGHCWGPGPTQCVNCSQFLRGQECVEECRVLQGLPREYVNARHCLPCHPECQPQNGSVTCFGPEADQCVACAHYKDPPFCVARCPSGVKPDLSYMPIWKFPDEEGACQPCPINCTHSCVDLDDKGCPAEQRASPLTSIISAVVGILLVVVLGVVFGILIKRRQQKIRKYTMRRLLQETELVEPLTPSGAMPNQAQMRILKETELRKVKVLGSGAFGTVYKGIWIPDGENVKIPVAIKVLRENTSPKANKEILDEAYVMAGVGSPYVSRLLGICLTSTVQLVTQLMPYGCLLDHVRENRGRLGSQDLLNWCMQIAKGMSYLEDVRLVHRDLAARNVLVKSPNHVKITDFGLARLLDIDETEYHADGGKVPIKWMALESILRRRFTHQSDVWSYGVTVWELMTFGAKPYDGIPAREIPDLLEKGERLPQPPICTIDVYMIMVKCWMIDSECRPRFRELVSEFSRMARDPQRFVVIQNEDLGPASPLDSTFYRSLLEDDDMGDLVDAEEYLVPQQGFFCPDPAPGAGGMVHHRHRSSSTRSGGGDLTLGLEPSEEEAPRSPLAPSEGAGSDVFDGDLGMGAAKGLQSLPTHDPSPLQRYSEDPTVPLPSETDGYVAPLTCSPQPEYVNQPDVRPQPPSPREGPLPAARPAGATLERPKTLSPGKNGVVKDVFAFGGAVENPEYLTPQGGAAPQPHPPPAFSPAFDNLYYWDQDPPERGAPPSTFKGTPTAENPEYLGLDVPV
[3] abbreviates: 10µM with chromaffin granule protein 1:50, six days.

Entries after “also recorded” stand apart in the source; their conditions may differ.

Chain of EGFR kinase (P00533 25-1210): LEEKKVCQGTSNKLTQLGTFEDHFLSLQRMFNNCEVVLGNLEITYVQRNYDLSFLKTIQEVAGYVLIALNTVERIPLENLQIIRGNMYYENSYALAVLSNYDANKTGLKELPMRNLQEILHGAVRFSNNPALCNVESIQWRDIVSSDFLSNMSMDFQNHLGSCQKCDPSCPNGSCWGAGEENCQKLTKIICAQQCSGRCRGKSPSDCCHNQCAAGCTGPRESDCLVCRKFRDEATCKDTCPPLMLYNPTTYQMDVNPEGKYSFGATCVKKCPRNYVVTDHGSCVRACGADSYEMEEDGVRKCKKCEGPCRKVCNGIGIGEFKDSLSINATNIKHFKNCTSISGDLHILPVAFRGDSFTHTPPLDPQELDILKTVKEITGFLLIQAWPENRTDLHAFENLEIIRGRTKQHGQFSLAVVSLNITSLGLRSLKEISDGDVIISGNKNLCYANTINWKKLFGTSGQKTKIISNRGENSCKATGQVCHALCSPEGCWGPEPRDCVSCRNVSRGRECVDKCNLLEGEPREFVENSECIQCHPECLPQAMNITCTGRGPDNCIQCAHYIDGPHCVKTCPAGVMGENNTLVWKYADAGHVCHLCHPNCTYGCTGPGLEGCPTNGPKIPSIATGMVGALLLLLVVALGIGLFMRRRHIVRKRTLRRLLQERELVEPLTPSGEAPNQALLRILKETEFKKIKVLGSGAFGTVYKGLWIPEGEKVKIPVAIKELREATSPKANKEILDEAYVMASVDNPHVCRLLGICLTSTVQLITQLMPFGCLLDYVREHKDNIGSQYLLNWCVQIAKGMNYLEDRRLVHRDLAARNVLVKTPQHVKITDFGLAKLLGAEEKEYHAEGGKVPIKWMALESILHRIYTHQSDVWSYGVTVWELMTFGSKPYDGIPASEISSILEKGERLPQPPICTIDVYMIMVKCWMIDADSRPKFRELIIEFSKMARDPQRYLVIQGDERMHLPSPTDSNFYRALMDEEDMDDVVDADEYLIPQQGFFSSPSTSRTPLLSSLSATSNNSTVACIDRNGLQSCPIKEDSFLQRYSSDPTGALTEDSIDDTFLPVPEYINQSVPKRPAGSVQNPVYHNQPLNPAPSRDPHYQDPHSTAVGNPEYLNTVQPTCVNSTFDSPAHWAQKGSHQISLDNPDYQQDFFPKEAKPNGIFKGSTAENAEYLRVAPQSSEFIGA

With `N#C/C(=C\c1ccc(O)c(O)c1)C(=O)NCCCCc1ccccc1` [Tyrphostin B56], the IC50 on HER1-2-kinase was above 500 µM; at EGFR kinase it was 5 µM. Moreover, the “effect on chromaffin granule protein-induced appearence of astroglial cells” value in data set [1] (10µM Tyrphostin B56 with chromaffin granule protein 1:50) was “successfully inhibited; also recorded: fully blocked the effect of granule protein on mesencephalic glia”.

For the compound Leu-enkephalin, in data set [2], the survival promoting activity entry is “none of these neuropeptides had any survival promoting activity”.

As for `C[N+](C)(C)CCOC(N)=O` [carbachol], the “survival of TH-positive neurons” value in data set [2] (culture medium containing carbachol (10^-5 M), DIV 8) is “uneffective”.

For `NC(CCCC(=O)O)C(=O)O` (stereo not drawn) [AA, α-aminoadipic acid], in data set [2], the “effect on survival promoting effect of chromaffin granule protein” value was “abolished the survival promoting affect of chromaffin granule protein” and the “basal survival of TH-immunoreactive neurons” value was “without affecting basal survival”.

Met-enkephalin: the survival promoting activity result in data set [2] is listed as “none of these neuropeptides had any survival promoting activity”.

As to neuropeptide Y, in data set [2], the survival promoting activity entry is recorded as “none of these neuropeptides had any survival promoting activity”.

Take `O=C1NC(=O)c2cc(Nc3ccccc3)c(Nc3ccccc3)cc21` [DAPH, 4,5-Dianilinophthalimide]: the “effect on FGF-2-mediated induction of astroglial cells” value in data set [1] (10 µM with FGF-2 at 10 ng/ml, DIV 6) is recorded as “could not be affected by this inhibitor”. Also, in data set [1] (setting [3]), the “effect on appearence of astroglial cell induced by the chromaffin granule activity” value was “inhibited”. The “effect on appearance of GFAP-positive astroglial cells in TGF-α or EGF treated cultures” value in data set [1] (10 µM, DIV 6) is recorded as “effectively blocked”. Besides, the “effect on survival of DAergic neurons induced by chromaffin granule activity” value in data set [2] (setting [3]) is recorded as “inhibited”. Besides, on p185^c-erbB2, the “p185^c-erbB2 autophosphorylation” value was “inhibits”.

With `O=c1[nH]c(=O)n([C@H]2C[C@H](O)[C@@H](CO)O2)cc1F` [FDUR, 5-fluorodeoxyuridine], in data set [2], the “effect on survival promoting effect of chromaffin granule protein” value is “abolished the survival promoting affect of chromaffin granule protein” and the “basal survival of TH-immunoreactive neurons” value is “without affecting basal survival”.

As a reminder, the IC50 is the concentration at which inhibition is half-maximal.
